Measurements reported in patent US20240368565A1, “COMPLEMENTATION-BASED TAGS AND REPORTERS FOR DUAL-MODALITY LABELING” (Promega Corporation, priority 2023, published 2024).

Test system: HeLa cells
Experiment: Flow cytometry fold response, reporter variants co-expressed with EGFP-HaloTag[3-19]-5×Gly/Ser-VS-HiBiT
Assay type: cell-based
Details: 100 nM ligand, compared to the less fluorogenic ligand JF646
Method: (§1) FIG. 95. […] Approximately 48 hours post-transfection, the cells were labeled with 100 nM JF646 HaloTag® ligand. Following a 1-hour incubation with the ligand, the cells were washed with DPBS media for 30 minutes (2× for 15 minutes each). Subsequently, the cells were lifted, and their fluorescence activity was measured using flow cytometry. […] The fold response of each assay condition was calculated as the ratio of mean fluorescence signal in the second quadrant (double positive) by the mean fluorescence signal in the third (JF646+) quadrant.
as §1, with “FIG. 96.” for “FIG. 95.”, “nM JF635” for “nM JF646”

Q: Which Fluorescence fold response does the source give for `C[Si]1(C)c2cc(N3CC(F)C3)ccc2C2(OC(=O)c3ccc(C(=O)NCCOCCOCCCCCCCl)cc32)c2ccc(N3CC(F)C3)cc21` [JF635] here?
A: fold responses are enhanced
